Measured values published in paper PMC7534330, “UHPLC-MS/MS method for pharmacokinetic and bioavailability determination of five bioactive components in raw and various processed products of Polygala tenuifolia in rat plasma” (Pharmaceutical Biology, 2020).

Tests used:
[1] = Stability of the five analytes in rat plasma; type: in vitro ADME; conditions: rat; for Long-term stability, Mean: 4 weeks; for Short-term stability, Mean: 5 h; for Auto-sampler stability, Mean: 24 h
Description: Stock standards of A5, A6, DSS, TFSA, TMCA and IS were prepared in methanol at a concentration of 1 mg/mL. A series of working standard solutions of the targeted compounds ranging from 10 to 20,000 ng/mL and the IS solution at 600 ng/mL were prepared by diluting the stock solutions with methanol and maintained at −20 °C. Calibration standards were freshly prepared by spiking the series of standard solutions (30 μL) including the IS into blank rat plasma (270 μL) to achieve concentrations of 1, 10, 50, 100, 500, 1000, 1600 and 2000 ng/mL. Quality control (QC) samples were prepared independently at low (2 ng/mL), medium (600 ng/mL) and high (1600 ng/mL) concentrations following the same method for the five compounds.
Stability studies included short-term stability (5 h at room temperature, i.e. 25 °C), freeze-thaw stability (three consecutive freeze-thaw cycles from −20 °C to room temperature), autosampler stability (24 h storage in the autosampler at 4 °C) and long-term stability (4 weeks storage at −80 °C). The stability data of all analytes are presented in Supplementary Table S4.

[2] = Pharmacokinetics of five components in rat plasma after oral administration of RPT, LPT and HPT extracts (UHPLC-MS/MS); conditions: male, SD, in vivo, 1.9 g/kg
Description: (§1) A Thermo Hypersil Gold C18 column (3.0 × 100 mm, i.d.; 3 μm) was used for chromatographic separation. An aqueous 10 mM ammonium acetate solution (A) and acetonitrile (B) were selected as the mobile phase components. The optimal gradient program involved the following steps: 5% B (0–1 min), changing to 85% B (1–3.5 min), 85% B (3.5–4.0 min), changing to 5% B (4.0–4.1 min) and 5% B (4.1–5.0 min). The flow rate was set to 0.4 mL/min, the autosampler was maintained at 4 °C and the injection volume was 5 μL.
(§2) UHPLC-MS/MS was conducted by an Applied Biosystems (AB) Sciex Exion LC system (Foster City, CA) connected to a 6500 + triple quad tandem mass spectrometer with an electrospray ionization source. All detection and quantifications were carried out in positive multiple reaction monitoring (MRM) mode. The optimized parameters were programmed as follows: ion source temperature, 500 °C; curtain gas pressure, 30 kPa; ion source gas 1 pressure, 55 kPa; ion source gas 2 pressure, 55 kPa; and ion spray voltage, […]. The chemical structures and ion mass spectra of targeted compounds are shown in Figure 1. The precursor ion and product ion were m/z 517.1 → 174.9 for A5, m/z 547.0 → 204.9 for A6, m/z 753.2 → 205.2 for DSS, m/z 681.3 → 443.3 for TFSA, m/z 236.8 → 103.2 for TMCA and m/z 136.9 → 92.9 for IS. All data were acquired by using AB Sciex Analyst software (version 1.6.3).
(§3) After thawing the frozen blood samples at room temperature, a 100 μL aliquot of plasma was spiked with 50 μL of the IS working solution in 2 mL EP tubes, and 750 μL of methanol was added into each of the tubes. Then, these tubes were mixed on a multi-tube Vortexer for 0.5 min before centrifugation at 11,800×g for 10 min. Finally, 200 μL of the obtained supernatant was transferred to a fresh autosampler vial, and then 5 μL of the sample was injected for analysis.
Male SD rats were randomly divided into four groups (n = 6 in each group), including the RPT group, LPT group, HPT group and control group. All oral administration samples were mixed with 0.5% CMC-Na (w/v) and then given to rats at a dose equivalent to 1.9 g/kg of RPT extract. The control group was orally treatment with equal volume of 0.5% CMC-Na solution. After a single administration, all blood samples were collected from the orbital vein into heparinized centrifuge tubes before administration (0 h) and at 0.083, 0.17, 0.25, 0.5, 0.75, 1, 1.5, 2, 3, 5, 8 and 12 h after administration and then centrifuged at 4 °C and 11,800×g for 10 min. The separated supernatant samples were preserved at −80 °C until they were measured.
(§4) The elementary pharmacokinetic parameters of plasma samples were analyzed by DAS 2.0 pharmacokinetic software. One-way analysis of variance (ANOVA) was used for statistical comparison for pharmacokinetic and interaction studies. A p-value < 0.05 indicated a significant difference. The main parameters considered were as follows: AUC0–∞ (the area under the blood concentration-time curve from zero to infinity initial plasma concentration), MRT (the mean residence time), Cmax (peak plasma concentration) and Tmax (time to reach Cmax for oral dose), t1/2 (elimination half-life) (He et al. [2015]). The absolute bioavailability (F) was evaluated as follows: F(%)=(AUCoral×Dosei.v.)/(AUCi.v.×Doseoral)×100%

[3] = Pharmacokinetics and absolute bioavailability of five compounds after oral and i.v. administration (UHPLC-MS/MS); type: in vivo; conditions: rat, in vivo
Description: as §1, §2, §3
The SD rats were randomly divided into oral and i.v. groups for A5, A6, DSS, TFSA and TMCA administration (n = 6 in each group). The oral doses of A5, A6, DSS, TFSA and TMCA groups were 7.40, 11.60, 16.00, 50.00 and 3.11 mg/kg, respectively, and the corresponding i.v. doses were 0.74, 1.16, 1.60, 5.00 and 0.31 mg/kg, respectively. Blood samples were collected from the suborbital vein into heparinized tubes before and 0, 0.083, 0.17, 0.25, 0.5, 1, 2, 3, 5 and 8 h after administration. The treatment method of blood samples was the same as that mentioned above.
as §4

For `COc1cc(/C=C/C(=O)O[C@H]2[C@H](O)[C@@H](CO)O[C@@]2(CO)O[C@H]2O[C@H](COC(=O)c3ccc(O)cc3)[C@@H](O)[C@H](O)[C@H]2O)cc(OC)c1OC` [TFSA, tenuifoliside A], the “Freeze-thaw stability, Mean” value ([1]; 2 ng/mL) was 96.5%, the “Freeze-thaw stability, Mean” value ([1]; 600 ng/mL) was 96.3% and the “Freeze-thaw stability, Mean” value ([1]; 1600 ng/mL) was 97.4%. For the same compound, the “Long-term stability, Mean” value ([1]; 2 ng/mL) was 89.9%, the “Long-term stability, Mean” value ([1]; 600 ng/mL) was 96.3% and the “Long-term stability, Mean” value ([1]; 1600 ng/mL) was 96.2%. For the same compound, the “Short-term stability, Mean” value ([1]; 2 ng/mL) was 97.6%, the “Short-term stability, Mean” value ([1]; 600 ng/mL) was 97.9% and the “Short-term stability, Mean” value ([1]; 1600 ng/mL) was 98.5%. For the same compound, the “Auto-sampler stability, Mean” value ([1]; 2 ng/mL) was 96.6%, the “Auto-sampler stability, Mean” value ([1]; 600 ng/mL) was 98.2% and the “Auto-sampler stability, Mean” value ([1]; 1600 ng/mL) was 96.3%. It also gave an AUC(0-t) ([2]; AUC0-t) of 284 ± 185 ng·h/mL, an AUC(0-inf) ([2]; AUC0-∞) of 297 ± 194 ng·h/mL and a Cmax ([2]; Cmax) of 107 ± 47.7 ng/mL. The MRT last ([2]; MRT0-t) was 175 ± 34.8 min, the “AUCΔ0-t (dose-normalized)” value ([3]; SD, iv) was 163.79 ± 11.83 ng·h/mL and the “AUCΔ0-∞ (dose-normalized)” value ([3]; SD, iv) was 163.80 ± 11.83 ng·h/mL. For the same compound, the “CΔmax (dose-normalized)” value ([3]; SD, iv) was 375.56 ± 13.65 ng/mL, the half-life ([3]; SD, iv) was 29.4 ± 3.6 min and the “AUCΔ0-t (dose-normalized)” value ([3]; SD, po) was 1.92 ± 0.85 ng·h/mL. The “AUCΔ0-∞ (dose-normalized)” value ([3]; SD, po) was 1.92 ± 0.85 ng·h/mL, the “CΔmax (dose-normalized)” value ([3]; SD, po) was 1.88 ± 0.76 ng/mL and the half-life ([3]; SD, po) was 55.2 ± 12.6 min. For the same compound, the Tmax ([3]; SD, po, Tmax) was about 11.4 min and the “F, absolute bioavailability” value [3] was 1.17 % of dose.
